Results on nine molecules are retold here after patent US20230303613A1, “3′3′ CYCLIC DINUCLEOTIDES WITH AN ALKENYLENE” (Institute of Organic Chemistry and Biochemistry AS CR, v.v.i, priority 2020, published 2023).

For test [1], the target named is T1, AQ STING (G230A-R293Q) (Homo sapiens, UniProt Q86WV6, G230A/H232R/R293Q).
T1 construct: 8xHis (N, cleaved yes); SUMO (N, cleaved yes); made in house; host or cells: E. coli Rosetta-gami B (DE3)
The test can be described thus: Differential Scanning Fluorimetry with AQ STING. The class given is binding. The following applies: thermal shift vs apoprotein, 150 µM CDN, truncated human AQ STING 0.1 mg/ml; for ΔTm at 150 µM: read-out: DSF ΔTm AQ STING. The text has this:
(§1) Purified PCR products were cleaved with restriction enzymes BamHI (cat. # R0136S, NEB, Ipswich, USA) and NotI (cat. # R0189S, NEB, Ipswich, USA) and cloned into the pSUMO vector linearized with the identical enzymes.
(§2) Bacterial pellets were re-suspended in ice-cold lysis buffer containing 50 mmol.1^-1 TrisCl (cat. # T1503, Sigma Aldrich, Czech Republic) pH 8.0, 300 mmol.1^-1 NaCl, 3 mmol.1^-1 β-mercaptoethanol (cat. # M6250, Sigma Aldrich, Czech Republic), 10% glycerol (cat. # G5516, Sigma Aldrich, Czech Republic) and 20 mmol.1^-1 imidazole (cat. # I5513, Sigma Aldrich, Czech Republic) using Dounce homogenizer. DNase I (cat. # D5025, Sigma Aldrich, Czech Republic) and RNase A (cat. # R6513, Sigma Aldrich, Czech Republic) were added (final concentration 50 µg/ml) together with MgCl2 (final concentration 5 mmol.l^-1) to the homogenate and bacteria were lysed using French Press G-M™ High-Pressure Cell Press Homogenizer (1500 psi, 3 cycles). […] The resin was poured into a chromatography column, washed with 50 ml buffer A (50 mmol.1^-1 TrisCl (pH 8.0), 800 mmol.1^-1 NaCl, 3 mmol.1^-1 β-mercaptol; 10% glycerol; 20 mmol.1^-1 imidazole) and 8-His-SUMO tagged STING proteins were eluted with 15 ml buffer A containing 300 mmol.1^-1 imidazole. […] Proteins were concentrated with Amicon® Ultra-15 10 K device (cat. # UFC901008, Merck Millipore, Billerica, USA) and flash frozen in liquid N2.
(§3) 20 µL solutions of the reaction mixtures were pipetted in triplicates into 96 well optical reaction plates and thermal denaturation of samples were performed on real time PCR cycler (LightCycler® 480 Instrument II - Roche, Basel, Switzerland). The first derivative of the thermal denaturation curves was performed to calculate denaturing temperatures of STING - CDN complexes and STING apoproteins. The thermal shift for each CDN was calculated by subtracting the average denaturing temperature of STING apoprotein from the average denaturing temperature of STING CDN complex.
(In DSF a fluorescence change marks the thermal transition of the protein.)

In test [2] the target is T2, WT STING (Homo sapiens, UniProt Q86WV6, H232R). The test is described as follows: Digitonin assay using 293T wtSTING-FL reporter cells. The class given is cell-based. To be noted: 293T wtSTING-FL cells; 30 minutes in Digitonin buffer, then 5 hours; ISRE firefly luciferase reporter. From the text:
Two complementary oligonucleotides of the sequence […] […] […] […] […] The oligonucleotides were mixed in equal molar amounts, hybridized, and cleaved by restriction endonucleases HindIII (cat. #. R0104S, NEB, Ipswich, USA) and BglII (cat. # R0144S, NEB, Ipswich, USA). Ultimately, they were ligated into plasmid pGL4.27 (cat. # E6651, Promega, Madison, USA) linearized with the same enzymes. As result the sequence with four ISRE sites was placed upstream of the minimum promoter of firefly luciferase reporter gene.
After 5 minutes incubation at room temperature (RT), 250 µL of the mixture was added dropwise to the cells in one well. Cells were incubated 36 hours at 37° C. with 5% CO2, and then detached with 0.05% Trypsin and 0.22 g/L EDTA (both cat. # L0941, Biowest, Riverside, USA).
Transfected cells were seeded onto poly-D-lysine coated six well plates at density 50,000 cells per 1 cm^2 in DMEM medium with high glucose containing 10% heat inactivated FBS, 30 µg/mL blasticidin (cat. # ant-bl-05, InvivoGen, San Diego, USA), 0.06 mg/ml Penicillin G and 0.1 mg/ml Streptomycin Sulfate (both cat. #. L0018, Biowest, Riverside, USA). The medium was replenished every 3 - 4 days until visible colonies of cells resistant to blasticidin were formed.
Blasticidin resistant cells stably expressing WT STING were further transfected with […] plasmid following the same procedure as described above. […] Homogeneous culture of stably double transfected cells was prepared by limiting dilution of cells in 96 well plates and wells with cells were selected that originated from a single cell.
The medium was removed next day and three fold serial dilutions of compounds in Digitonin buffer containing 50 mmol.l^-1 HEPES (cat. # H3375, Sigma Aldrich, Czech Republic) pH 7.0, 100 mmol.1^-1 KCl, 3 mmol.l^-1 MgCl2, 0.1 mmol.l^-1 DTT (cat. # D0632, Sigma Aldrich, Czech Republic), 85 mmol.1^-1 Sucrose (cat. # S7903, Sigma Aldrich, Czech Republic), 0.2% BSA (cat. # A2153, Sigma Aldrich, Czech Republic), 1 mmol.l^-1 ATP (cat. # A1852, Sigma Aldrich, Czech Republic), 0.1 mmol.1^-1 GTP (cat. # G8877, Sigma Aldrich, Czech Republic), and 10 µg/mL Digitonin A (cat. # D141, Sigma Aldrich, Czech Republic) were added to the cells. The buffer was removed after 30 minutes incubation at 37° C. with 5% CO2, the cells were washed once with 100 µl of cultivation medium, and 100 µl of medium was added to each well. The plates with cells were incubated for 5 hours at 37° C. with 5% CO2, 50µl of the medium was removed and 30 µl of ONE-Glo^Tm Luciferase Assay System reagent (cat. # E6120, Promega, Madison, USA) was added to each well. Luminescence was read on Synergy H1 (Biotek, Winooski, USA).
Target sequence in this assay (Q86WV6 whole entry H232R): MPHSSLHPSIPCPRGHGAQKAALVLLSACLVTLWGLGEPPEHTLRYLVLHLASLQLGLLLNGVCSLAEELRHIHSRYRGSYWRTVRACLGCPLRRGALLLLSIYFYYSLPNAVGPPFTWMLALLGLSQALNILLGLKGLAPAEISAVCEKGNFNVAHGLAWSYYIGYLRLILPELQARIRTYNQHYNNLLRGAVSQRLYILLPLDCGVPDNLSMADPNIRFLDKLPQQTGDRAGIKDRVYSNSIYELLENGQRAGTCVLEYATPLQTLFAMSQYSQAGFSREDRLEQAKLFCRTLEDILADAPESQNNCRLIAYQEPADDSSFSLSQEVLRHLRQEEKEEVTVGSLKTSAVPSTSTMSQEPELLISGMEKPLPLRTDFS

For test [3], the target named is T2, WT STING. The test can be described thus: 293T WT STING standard reporter assay. The class given is cell-based. The following applies: 293T wtSTING-FL cells; 7 hours with compound, no digitonin; ISRE firefly luciferase reporter.
Target sequence in this assay (Q86WV6 whole entry H232R): as above
In test [4] the target is T2, WT STING. The test can be described thus: Differential Scanning Fluorimetry with WT STING. The class given is binding. Details: 8xHis (N, cleaved yes); SUMO (N, cleaved yes); made in house; host or cells: E. coli Rosetta-gami B (DE3). To be noted: thermal shift vs apoprotein, 150 µM CDN, truncated human WT STING 0.1 mg/ml; for ΔTm at 150 µM: read-out: DSF ΔTm WT STING.
Source text: as §1, §2, §3
Target sequence in this assay (Q86WV6 140-343 H232R): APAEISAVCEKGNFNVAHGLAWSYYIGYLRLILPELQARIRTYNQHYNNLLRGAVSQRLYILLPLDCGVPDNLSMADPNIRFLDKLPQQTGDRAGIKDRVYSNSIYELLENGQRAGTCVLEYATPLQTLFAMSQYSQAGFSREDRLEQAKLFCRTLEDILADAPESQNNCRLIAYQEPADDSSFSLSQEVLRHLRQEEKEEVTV

T1 sequence (Q86WV6 140-343 G230A/H232R/R293Q): as the sequence (Q86WV6 140-343 H232R) above, with G91A, R154Q counted along it

For `Nc1nc2c(ncn2[C@@H]2O[C@@H]3COP(=O)(O)O[C@@H]4[C@H](O)[C@@H](COP(=O)(O)O[C@@H]2[C@@H]3O)O[C@H]4n2cnc3c(N)ncnc32)c(=O)[nH]1` [2′2′-cGAMP, reference compound], the “DSF ΔTm AQ STING” value in test [1] is 19.4 °C. Also, the values for the half-maximal effective concentration (EC50) in test [2] and in test [3] were 0.03 µM and 10.2 µM, respectively. Further, the “DSF ΔTm WT STING” value in test [4] stood at 11.5 °C.
For the molecule `Nc1nc2c(ncn2[C@@H]2O[C@@H]3/C=C/P(=O)(O)O[C@H]4[C@@H](F)[C@H](n5cnc6c(=O)[nH]c(N)nc65)O[C@@H]4COP(=O)(O)O[C@H]3[C@H]2F)c(=O)[nH]1` [Compound 56, (1R,6R,8R,9R,10R,13E,15R,17R,18R)-8,17-bis(2-amino-6-oxo-6,9-dihydro-1H-purin-9-yl)-9,18-difluoro-3,12-dihydroxy-2,4,7,11,16-pentaoxa-3λ^5,12λ^5-diphosphatricyclo[13.3.0.0^6,^10]octadec-13-ene-X3.12-dione], the ΔTm (as a rule, the shift of the melting midpoint relative to a reference) at 150 µM in test [1] turned out to be 10.6 °C; in test [4], 4.1 °C. Besides, the half-maximal effective concentration (EC50) (as a rule, the concentration that produces a half-maximal response) in test [2] is 0.5 µM.
The like results for `Nc1nc2c(ncn2[C@@H]2O[C@@H]3/C=C\P(=O)(O)O[C@H]4[C@@H](N)[C@H](n5cnc6c(N)ncnc65)O[C@@H]4COP(=O)(O)O[C@H]3[C@H]2O)c(=O)[nH]1` [Compound 67, (1S,6R,8R,9R,10S,13Z,15R,17R,18R)-9-amino-17-(2-amino-6-oxo-6,9-dihydro-1H-purin-9-yl)-8-(6-amino-9H-purin-9-yl)-3,12,18-trihydroxy-2,4,7,11,16-pentaoxa-3λ^5,12λ^5-diphosphatricyclo[13.3.0.0^6,^10]octadec-13-ene-3,12-dione] were, in that order, 2.9 °C, 0.3 °C and 6.4 µM.
On to `Nc1ncnc2c1ncn2[C@@H]1O[C@@H]2COP(=O)(O)O[C@H]3[C@@H](O)[C@H](n4cnc5c(N)ncnc54)O[C@@H]3COP(=O)(O)O[C@H]2[C@H]1O` [3′3′c-di-AMP, 3′3′-c-di-AMP, reference compound], for which the “DSF ΔTm AQ STING” value in test [1] was 9.3 °C. Moreover, the EC50 in test [2] came out at 0.3 µM. Also, the “DSF ΔTm WT STING” value in test [4] worked out at 2.6 °C.
As to `Nc1nc(N)c2ncn([C@@H]3O[C@@H]4COP(=O)(O)O[C@H]5[C@@H](O)[C@H](n6cnc7c(=O)[nH]c(N)nc76)O[C@@H]5/C=C\P(=O)(O)O[C@H]4[C@H]3O)c2n1` (stereo in doubt) [Compound 69, (1S,6R,8R,9R,10S,15R,17R,18R)-17-(2-amino-6-oxo-6,9-dihydro-1H-purin-9-yl)-8-(2,6-diamino-9H-purin-9-yl)-3,9,12,18-tetrahydroxy-2,4,7,11,16-pentaoxa-3λ^5,12λ^5-diphosphatricyclo[13.3.0.0^6,^10]octadec-13-ene-3,12-dione], the shift in melting temperature (ΔTm) at 150 µM worked out at 3.5 °C in test [1] and 1.2 °C in test [4]. Further, the EC50 in test [2] worked out at 32.8 µM.
Take `Nc1nc2c(ncn2[C@@H]2O[C@@H]3COP(=O)(O)O[C@H]4[C@@H](O)[C@H](n5cnc6c(=O)[nH]c(N)nc65)O[C@@H]4COP(=O)(O)O[C@H]3[C@H]2O)c(=O)[nH]1` [3′3′c-di-GMP, 3′3′-c-di-GMP, reference compound]: in test [1], the “DSF ΔTm AQ STING” value was found to be 7.7 °C. Further, in test [2], the EC50 turned out to be 5.8 µM. The “DSF ΔTm WT STING” value in test [4] is 2.6 °C.
`Nc1nc(N)c2ncn([C@@H]3O[C@@H]4COP(=O)(O)O[C@H]5[C@@H](O)[C@H](n6cnc7c(=O)[nH]c(N)nc76)O[C@@H]5/C=C\P(=O)(O)O[C@H]4[C@H]3F)c2n1` [Compound 65, (1S,6R,8R,9R,10R,13Z,15R,17R,18R)-17-(2-amino-6-oxo-6,9-dihydro-1H-purin-9-yl)-8-(2,6-diamino-9H-purin-9-yl)-9-fluoro-3,12,18-trihydroxy-2,4,7,11,16-pentaoxa-3λ^5,12λ^5-diphosphatricyclo[13.3.0.0^6,^10]octadec-13-ene-3,12-dione]: the values for the ΔTm at 150 µM in test [1] and in test [4] were 8 °C and 3.1 °C, respectively. Besides, the concentration giving a half-maximal response (EC50) in test [2] was 5 µM.
The like results for `Nc1nc2c(ncn2[C@@H]2O[C@@H]3/C=C\P(=O)(O)O[C@H]4C[C@H](n5cnc6c(N)nc(F)nc65)O[C@@H]4COP(=O)(O)O[C@H]3[C@H]2O)c(=O)[nH]1` [Compound 66, (1S,6R,8R,10S,13Z,15R,17R,18R)-8-(6-amino-2-fluoro-9H-purin-9-yl)-17-(2-amino-6-oxo-6,9-dihydro-1H-purin-9-yl)-3,12,18-trihydroxy-2,4,7,11,16-pentaoxa-3λ^5,12λ^5-diphosphatricyclo[13.3.0.0^6,^10]octadec-13-ene-3,12-dione] were, in that order, 1.7 °C, 0.5 °C and 15 µM.
Regarding `Nc1nc2c(ncn2[C@H]2C[C@@H]3OP(=O)(O)/C=C/[C@H]4O[C@@H](n5cnc6c(N)ncnc65)[C@H](F)[C@@H]4OP(=O)(O)OC[C@H]3O2)c(=O)[nH]1` [Compound 57, (1R,6R,8R,10S,13E,15R,17R,18R)-8-(2-amino-6-oxo-6,9-dihydro-1H-purin-9-yl)-17-(6-amino-9H-purin-9-yl)-18-fluoro-3,12-dihydroxy-2,4,7,11,16-pentaoxa-3λ^5,12λ^5-diphosphatricyclo[13.3.0.0^6,^10]octadec-13-ene-3,12-dione], the results for the ΔTm at 150 µM in test [1] and in test [4] were 11.3 °C and 6.1 °C, respectively. Further, in test [2], the EC50 worked out at 0.12 µM.
